Test results as given in ChEMBL document CHEMBL5214900, “Design, Synthesis, and Biological Evaluation of Membrane-Active Bakuchiol Derivatives as Effective Broad-Spectrum Antibacterial Agents” (J Med Chem, 2021).
≈ marks a conversion by molar mass, not a printed value.

Tests used:
[1] = system: Staphylococcus aureus; assay: Antibacterial activity against Staphylococcus aureus ATCC 29213 assessed as inhibition of bacterial growth incubated for 24 hrs by CLSI based broth dilution method; assay type: functional
[2] = system: Escherichia coli; assay: Antibacterial activity against Escherichia coli ATCC 25922 assessed as inhibition of bacterial growth incubated for 24 hrs by CLSI based broth dilution method; assay type: functional
[3] = Hemolytic activity in rabbit RBC measured after 1 hrs by multimode reader assay; assay type: toxicity, cell-based, Oryctolagus cuniculus, Erythrocyte; settings: rabbit red blood cells (erythrocytes)
[4] = system: Staphylococcus aureus; assay: Antibacterial activity against methicillin-resistant Staphylococcus aureus NCTC10442 assessed as inhibition of bacterial growth incubated for 24 hrs by CLSI based broth dilution method; assay type: functional
[5] = system: Staphylococcus aureus; assay: Antibacterial activity against methicillin-resistant Staphylococcus aureus N315 assessed as inhibition of bacterial growth incubated for 24 hrs by CLSI based broth dilution method; assay type: functional
[6] = system: Klebsiella pneumoniae; assay: Antibacterial activity against Klebsiella pneumoniae ATCC 10031 assessed as inhibition of bacterial growth incubated for 24 hrs by CLSI based broth dilution method; assay type: functional
[7] = system: Pseudomonas aeruginosa; assay: Antibacterial activity against Pseudomonas aeruginosa ATCC 9027 assessed as inhibition of bacterial growth incubated for 24 hrs by CLSI based broth dilution method; assay type: functional
[8] = system: Acinetobacter baumannii; assay: Antibacterial activity against Acinetobacter baumannii ATCC 17978 assessed as inhibition of bacterial growth incubated for 24 hrs by CLSI based broth dilution method; assay type: functional
[9] = system: Acinetobacter baumannii; assay: Antibacterial activity against Acinetobacter baumannii R2889 assessed as inhibition of bacterial growth incubated for 24 hrs by CLSI based broth dilution method; assay type: functional
[10] = system: Klebsiella pneumoniae; assay: Antibacterial activity against Klebsiella pneumoniae ATCC 14581 assessed as inhibition of bacterial growth incubated for 24 hrs by CLSI based broth dilution method; assay type: functional

Row | Compound | MIC [1] [mg/L] | MIC [2] [mg/L] | HC50 at 1 h [3] [µg/mL] | MIC [4] [mg/L] | MIC [5] [mg/L] | MIC [6] [mg/L] | MIC [7] [mg/L] | MIC [8] [mg/L] | MIC [9] [mg/L] | MIC [10] [mg/L]
1 | C=C[C@@](C)(/C=C/c1ccc(OCCCCCCCCBr)cc1)CCC=C(C)C | > 50 | > 100 | > 200 | > 50 | > 50 |  |  |  |  | 
2 | C=C[C@@](C)(/C=C/c1ccc(OCCCC[N+](C)(C)C)cc1)CCC=C(C)C.[I-] | 0.78 | 6.25 | 34.2 | 0.78 | 0.78 |  |  |  |  | 
3 | C=C[C@@](C)(/C=C/c1ccc(OCCCC[N+](C)(CCCC)CCCC)cc1)CCC=C(C)C.[I-] | 1.56 | 12.5 | 40.6 | 0.39 | 0.78 |  |  |  |  | 
4 | C=C[C@@](C)(/C=C/c1ccc(OCCCCN(C)C)cc1)CCC=C(C)C | 1.56 (≈ 4.39 µM) | 50 (≈ 141 µM) | 41.7 | 3.12 (≈ 8.79 µM) | 1.56 (≈ 4.39 µM) |  |  |  |  | 
5 | C=C[C@@](C)(/C=C/c1ccc(OCCCCNCCCC)cc1)CCC=C(C)C | 1.56 (≈ 4.07 µM) | 12.5 (≈ 32.6 µM) | 32.4 | 1.56 (≈ 4.07 µM) | 1.56 (≈ 4.07 µM) |  |  |  |  | 
6 | C=C[C@@](C)(/C=C/c1ccc(OCCCC[N+](C)(CC)CC)cc1)CCC=C(C)C.[I-] | 1.56 | 12.5 | 57 | 0.78 | 0.39 |  |  |  |  | 
7 | C=C[C@@](C)(/C=C/c1ccc(OCCCCCCCCCCBr)cc1)CCC=C(C)C | > 50 | > 100 | > 200 | > 50 | > 50 |  |  |  |  | 
8 | C=C[C@@](C)(/C=C/c1ccc(OCCCCN2CCN(CCCN(C)C)CC2)cc1)CCC=C(C)C | 1.56 (≈ 3.24 µM) | 3.12 (≈ 6.49 µM) | 52 | 3.12 (≈ 6.49 µM) | 0.78 (≈ 1.62 µM) | 1.56 (≈ 3.24 µM) | 50 (≈ 104 µM) | 6.25 (≈ 13 µM) | 6.25 (≈ 13 µM) | 1.56 (≈ 3.24 µM)
9 | C=C[C@@](C)(/C=C/c1ccc(OCCCCN(C)CCCN(C)C)cc1)CCC=C(C)C | 1.56 (≈ 3.66 µM) | 3.12 (≈ 7.32 µM) | 32.5 | 3.12 (≈ 7.32 µM) | 1.56 (≈ 3.66 µM) | 1.56 (≈ 3.66 µM) | 12.5 (≈ 29.3 µM) | 1.56 (≈ 3.66 µM) | 1.56 (≈ 3.66 µM) | 1.56 (≈ 3.66 µM)
10 | C=C[C@@](C)(/C=C/c1ccc(OCCCCN(C)CCCNC)cc1)CCC=C(C)C | 1.56 (≈ 3.78 µM) | 1.56 (≈ 3.78 µM) | 37.4 | 1.56 (≈ 3.78 µM) | 0.78 (≈ 1.89 µM) | 3.12 (≈ 7.57 µM) | 6.25 (≈ 15.1 µM) | 1.56 (≈ 3.78 µM) | 6.25 (≈ 15.1 µM) | 3.12 (≈ 7.57 µM)
11 | C=C[C@@](C)(/C=C/c1ccc(OCCCCNCCSC)cc1)CCC=C(C)C | 0.78 (≈ 1.94 µM) | 50 (≈ 124 µM) | 32.5 | 1.56 (≈ 3.88 µM) | 0.78 (≈ 1.94 µM) |  |  |  |  | 
12 | C=C[C@@](C)(/C=C/c1ccc(OCCCCNCCCCCC)cc1)CCC=C(C)C | 1.56 (≈ 3.79 µM) | 100 (≈ 243 µM) | 120 | 1.56 (≈ 3.79 µM) | 0.78 (≈ 1.89 µM) |  |  |  |  | 
13 | C=C[C@@](C)(/C=C/c1ccc(OCCCCCCCCCCN(CC)CC)cc1)CCC=C(C)C | 12.5 (≈ 26.7 µM) | > 100 | > 200 | 3.13 (≈ 6.68 µM) | 3.12 (≈ 6.68 µM) |  |  |  |  | 
14 | C=C[C@@](C)(/C=C/c1ccc(OCCCCN(Cc2ccccn2)Cc2ccccn2)cc1)CCC=C(C)C | 3.12 (≈ 6.13 µM) | > 100 | > 200 | 1.56 (≈ 3.06 µM) | 1.56 (≈ 3.06 µM) |  |  |  |  | 
15 | C=C[C@@](C)(/C=C/c1ccc(OCCCN(CCCC)CCCC)cc1)CCC=C(C)C | > 50 | > 100 | > 200 | > 50 | > 50 |  |  |  |  | 
16 | C=C[C@@](C)(/C=C/c1ccc(OCCCCN2CCCC2)cc1)CCC=C(C)C | 1.56 (≈ 4.09 µM) | > 100 | 58.2 | 1.56 (≈ 4.09 µM) | 1.56 (≈ 4.09 µM) |  |  |  |  | 
17 | C=C[C@@](C)(/C=C/c1ccc(OCCCCCCCCN(CC)CC)cc1)CCC=C(C)C | 3.12 (≈ 7.11 µM) | > 100 | 83.5 | 1.56 (≈ 3.55 µM) | 1.56 (≈ 3.55 µM) |  |  |  |  | 
18 | C=C[C@@](C)(/C=C/c1ccc(OCCCCNCCCCCCCC)cc1)CCC=C(C)C | 6.25 (≈ 14.2 µM) | > 100 | > 200 | 3.12 (≈ 7.11 µM) | 1.56 (≈ 3.55 µM) |  |  |  |  | 
19 | C=C[C@@](C)(/C=C/c1ccc(OCCCCN2CCN(C)CC2)cc1)CCC=C(C)C | 1.56 (≈ 3.8 µM) | > 100 | 104 | 3.12 (≈ 7.61 µM) | 3.12 (≈ 7.61 µM) |  |  |  |  | 
20 | C=C[C@@](C)(/C=C/c1ccc(OCCCCNCCCCCCCCCC)cc1)CCC=C(C)C | 50 (≈ 107 µM) | > 100 | > 200 | 50 (≈ 107 µM) | 12.5 (≈ 26.7 µM) |  |  |  |  | 
21 | C=C[C@@](C)(/C=C/c1ccc(OCCCBr)cc1)CCC=C(C)C | > 50 | > 100 | > 200 | > 50 | > 50 |  |  |  |  | 
22 | C=C[C@@](C)(/C=C/c1ccc(OCCCN(C)C)cc1)CCC=C(C)C | 6.25 (≈ 18.3 µM) | > 100 | 88.5 | 6.25 (≈ 18.3 µM) | 6.25 (≈ 18.3 µM) |  |  |  |  | 
23 | C=C[C@@](C)(/C=C/c1ccc(OCCCCCCN(CC)CC)cc1)CCC=C(C)C | 3.12 (≈ 7.59 µM) | > 100 | 65 | 1.56 (≈ 3.79 µM) | 0.78 (≈ 1.89 µM) |  |  |  |  | 
24 | C=C[C@@](C)(/C=C/c1ccc(OCCCCNCC)cc1)CCC=C(C)C | 1.56 (≈ 4.39 µM) | 12.5 (≈ 35.2 µM) | 21.8 | 1.56 (≈ 4.39 µM) | 0.78 (≈ 2.19 µM) |  |  |  |  | 
25 | CC[C@H](C)[C@H](NC(=O)CN)C(=O)NCC(=O)N[C@@H](C)C(=O)N[C@H](C(=O)N[C@@H](CC(C)C)C(=O)N[C@@H](CCCCN)C(=O)N[C@H](C(=O)N[C@@H](CC(C)C)C(=O)N[C@H](C(=O)N[C@H](C(=O)NCC(=O)N[C@@H](CC(C)C)C(=O)N1CCC[C@H]1C(=O)N[C@@H](C)C(=O)N[C@@H](CC(C)C)C(=O)N[C@H](C(=O)N[C@@H](CO)C(=O)N[C@@H](Cc1c[nH]c2ccccc12)C(=O)N[C@H](C(=O)N[C@@H](CCCCN)C(=O)N[C@@H](CCCNC(=N)N)C(=O)N[C@@H](CCCCN)C(=O)N[C@@H](CCCNC(=N)N)C(=O)N[C@@H](CCC(N)=O)C(=O)N[C@@H](CCC(N)=O)C(N)=O)[C@@H](C)CC)[C@@H](C)CC)[C@@H](C)O)[C@@H](C)O)C(C)C)C(C)C [MELITTIN] |  |  |  |  |  | 6.25 (≈ 2.2 µM) |  | 3.12 (≈ 1.1 µM) | 3.12 (≈ 1.1 µM) | 6.25 (≈ 2.2 µM)
26 | C=C[C@@](C)(/C=C/c1ccc(OCCCN(CC)CC)cc1)CCC=C(C)C | 3.12 (≈ 8.46 µM) | > 100 | 102 | 3.12 (≈ 8.46 µM) | 3.12 (≈ 8.46 µM) |  |  |  |  | 
27 | C=C[C@@](C)(/C=C/c1ccc(OCCCCBr)cc1)CCC=C(C)C | > 50 | > 100 | > 200 | > 50 | > 50 |  |  |  |  | 
28 | C=C[C@@](C)(/C=C/c1ccc(OCCCCCCBr)cc1)CCC=C(C)C | > 50 | > 100 | > 200 | > 50 | > 50 |  |  |  |  | 
29 | C=C[C@@](C)(/C=C/c1ccc(OCCCCN(CC)CC)cc1)CCC=C(C)C | 3.12 (≈ 8.15 µM) | > 100 | 109 | 3.12 (≈ 8.15 µM) | 3.12 (≈ 8.15 µM) |  |  |  |  | 
30 | C=C[C@@](C)(/C=C/c1ccc(OCCCCN(CCCC)CCCC)cc1)CCC=C(C)C | > 50 | > 100 | > 200 | > 50 | > 50 |  |  |  |  | 
